Experiments:
Gata2 expression = assay: RT-PCR and Western blot of Gata2/GATA-2 and GATA-2 target genes in fetal liver cells and FACS-sorted R2 cells; assay type: cell-based, mouse; conditions: total fetal liver cells, compound treatment, 72 h
Procedure: Cell culture. G1E-ER-GATA-1 cells were cultured with or without 1 μM estradiol as previously described. Fetal liver erythroid precursor cells were cultured and maintained at a density of 2.5×10^5−1×10^6 cells/ml in StemPro®-34 (Gibco) supplemented with 10% nutrient supplement (Gibco), 2 mM L-glutamine (Cellgro), 1% Penicillin/streptomycin (Cellgro), 100 μM monothioglycerol (Sigma-Aldrich), 1 μM dexamethasone (Sigma-Aldrich), 0.5 U/ml of erythropoietin, and 1% conditioned medium from a kit ligand-producing CHO cell line for expansion. Cells were cultured in a humidified incubator at 37° C. (5% carbon dioxide).
Quantitative real-time RT-PCR. […] Real-time PCR was performed with SYBR green master mix (Applied Biosystems) and Product accumulation was monitored by SYBR green fluorescence using either a StepOnePlus™ or Viia™7 instrument (Applied Biosystems). Relative expression was determined from a standard curve of serial dilutions of cDNA samples, and values were normalized to 18S RNA expression. […]
(§1) Flow cytometry. […] APC-conjugated antibody CD31 (MEC13.3, Biolegend), PE-conjugated antibody c-Kit (2B8, eBioscience), PerCP-Cy5.5-conjugated antibody Scal (D7, eBioscience), APC-conjugated antibody Ter119 (TER119, eBioscience) and PE-conjugated CD71 (R17217, eBioscience) were used for flow cytometry and Fluorescence Activated Cell Sorting (FACS). […]

[1] = system: Lin- hematopoietic precursors from E14.5 fetal livers; assay: Erythroid maturation (CD71/Ter119, R1-R5) of E14.5 fetal liver hematopoietic precursors, flow cytometry; assay type: cell-based, mouse; conditions: Lin- HSPCs from fetal liver, DMSO as control, 3 days
Procedure: Primary erythroid precursor cell isolation. Primary erythroid precursors were isolated from E14.5 fetal livers using the EasySep™ negative selection Mouse Hematopoietic Progenitor Cell Enrichment Kit (StemCell Technologies). Briefly, fetal livers were dissociated by pipetting and resuspended at 5×10^7 cell/ml in PBS containing 2% FBS, 2.5 mM EDTA, and 10 mM glucose. EasySep™ Mouse Hematopoietic Progenitor Cell Enrichment Cocktail was added at 50 μg/ml supplemented with 2.5 μg/ml biotin-conjugated CD71 antibody (eBioscience). After 15 min incubation on ice, the cells were washed by centrifugation for […] at 1200 rpm at 4° C. and resuspended at 5×10^7 cell/ml in PBS containing 2% FBS, 2.5 mM EDTA, and 10 mM glucose, and EasySep™ Biotin Selection Cocktail was added at 100 μg/ml. After 15 min incubation at 4° C., EasySep™ Mouse Progenitor Magnetic Microparticles were added at 50 μg/ml. […]
as §1, with “(FACS). Samples were analyzed on a FACSAria™ II cell sorter (BD Biosciences).” for “(FACS).”

SMILES	Gata2 mRNA level vs DMSO-treated control (Gata2 expression)	Gata2 primary transcript level vs DMSO-treated control (Gata2 expression)	activity on erythropoiesis (flow analysis, R1-R5), compared with psychosine [1]
CCCCCCCCCCCCC/C=C/C(O)C(N)CO[C@@H]1O[C@H](CO)[C@H](O)[C@H](O)[C@H]1O (stereo partly drawn) [psychosine, galactosylsphingosine]	2-3 fold	2-3 fold	
CCCCCCCCCCCCC/C=C/[C@@H](O)C(N)CO[C@H]1O[C@H](CO)[C@@H](O[C@@H]2O[C@H](CO)[C@H](O)[C@H](O)[C@H]2O)[C@H](O)[C@@H]1O (stereo partly drawn) [lactosylsphingosine]			not
